Assay results as given in BindingDB's records for doi:10.1146/annurev.pa.30.040190.003221 (National Institute For Medical Research, 1990).

Tests used:
[1] = biological target: T1, Muscarinic acetylcholine receptor M2 (Rattus norvegicus, UniProt P10980)
T1 sequence (P10980 whole entry): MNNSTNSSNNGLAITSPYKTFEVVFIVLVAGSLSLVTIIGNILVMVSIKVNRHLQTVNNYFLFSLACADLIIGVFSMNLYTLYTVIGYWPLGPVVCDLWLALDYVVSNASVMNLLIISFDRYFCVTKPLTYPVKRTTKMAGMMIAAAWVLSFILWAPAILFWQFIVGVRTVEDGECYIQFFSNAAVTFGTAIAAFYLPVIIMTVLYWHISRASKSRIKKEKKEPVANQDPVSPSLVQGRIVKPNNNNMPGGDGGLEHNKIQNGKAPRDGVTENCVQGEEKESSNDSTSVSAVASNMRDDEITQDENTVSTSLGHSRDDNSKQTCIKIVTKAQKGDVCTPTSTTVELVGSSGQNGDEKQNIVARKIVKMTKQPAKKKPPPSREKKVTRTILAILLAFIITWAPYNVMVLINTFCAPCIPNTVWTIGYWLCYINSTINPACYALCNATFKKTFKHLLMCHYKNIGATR

[2] = biological target: T2, Muscarinic acetylcholine receptor M1 (Rattus norvegicus, UniProt P08482)
T2 sequence (P08482 whole entry): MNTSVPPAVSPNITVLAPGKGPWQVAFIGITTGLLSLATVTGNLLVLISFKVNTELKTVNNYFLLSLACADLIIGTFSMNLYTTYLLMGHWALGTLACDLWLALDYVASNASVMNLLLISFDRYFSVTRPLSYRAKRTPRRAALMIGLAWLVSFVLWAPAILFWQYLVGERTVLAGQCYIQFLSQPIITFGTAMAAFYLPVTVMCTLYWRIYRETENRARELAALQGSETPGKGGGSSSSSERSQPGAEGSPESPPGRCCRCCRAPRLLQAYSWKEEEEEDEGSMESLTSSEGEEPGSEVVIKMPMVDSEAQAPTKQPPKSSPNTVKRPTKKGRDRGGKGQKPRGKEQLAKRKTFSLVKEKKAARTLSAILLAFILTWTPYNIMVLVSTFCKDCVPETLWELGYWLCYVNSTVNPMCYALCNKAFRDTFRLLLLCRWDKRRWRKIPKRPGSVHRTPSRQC

[3] = biological target: Muscarinic acetylcholine receptor M3 (Rattus norvegicus, UniProt P08483)
Chain of Muscarinic acetylcholine receptor M3 (P08483 whole entry): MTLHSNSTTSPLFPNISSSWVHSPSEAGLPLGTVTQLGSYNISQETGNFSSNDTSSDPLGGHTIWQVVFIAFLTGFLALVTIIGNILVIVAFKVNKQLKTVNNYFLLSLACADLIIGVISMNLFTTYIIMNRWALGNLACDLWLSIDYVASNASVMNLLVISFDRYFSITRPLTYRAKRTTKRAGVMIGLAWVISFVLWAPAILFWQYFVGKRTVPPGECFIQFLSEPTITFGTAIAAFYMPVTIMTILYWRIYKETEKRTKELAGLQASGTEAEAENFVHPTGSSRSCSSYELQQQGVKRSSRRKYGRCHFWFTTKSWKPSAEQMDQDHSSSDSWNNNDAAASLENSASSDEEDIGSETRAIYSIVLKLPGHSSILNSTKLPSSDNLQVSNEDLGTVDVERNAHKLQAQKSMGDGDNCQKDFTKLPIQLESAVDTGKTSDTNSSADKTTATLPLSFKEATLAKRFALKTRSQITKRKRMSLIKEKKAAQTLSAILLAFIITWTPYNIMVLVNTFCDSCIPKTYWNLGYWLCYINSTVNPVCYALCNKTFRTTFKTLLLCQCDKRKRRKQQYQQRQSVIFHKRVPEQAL

Compound | Ki [1] | Ki [2] | Ki [3]
CC(=O)N[C@H]1CO[C@H](COS(=O)(=O)O)[C@@H](O[C@@H]2O[C@H](C(=O)O)[C@@H](O[C@H]3O[C@H](CO)[C@@H](O[C@@H]4O[C@@H](C(=O)O)[C@@H](O)[C@H](O)[C@H]4OS(=O)(=O)O)[C@H](OS(=O)(=O)O)[C@H]3NS(=O)(=O)O)[C@H](O)[C@H]2OS(=O)(=O)O)[C@@H]1O [CAS_9050-30-0] | 126 nM | 12.6 nM | 6.31 nM
COc1ccccc1CNCCCCCCNCCCCCCCCNCCCCCCNCc1ccccc1OC [METHOCTRAMINE] | – | – | 316 nM
CCN(CC)CC1CCCCN1CC(=O)N1c2ccccc2C(=O)Nc2cccnc21 (centres undefined) [(AF-DX 116) 11-[2-(2-Diethylaminomethyl-piperidin-1-yl)-acetyl]-5,11-dihydro-benzo[e]pyrido[3,2-b][1,4]diazepin-6-one] | – | 398 nM | 1260 nM
C[C@H]1OC(=O)C2C[C@H]3CCCC[C@@H]3[C@@H](/C=C/[C@@H]3CCC[C@H](C)N3C)C21 (some centres undefined) [HIMBACINE] | 7.94 nM | 100 nM | 126 nM
